Data from PMC7584369, “Di-bromo-Based Small-Molecule Inhibitors of the PD-1/PD-L1 Immune Checkpoint” (Journal of Medicinal Chemistry, 2020).
“And” between values parts separate entries of the source, which are not always exact repeats. Identical values can stand only once. “Also recorded” adds a separate entry of the source. Counter-ions that a name gives are not always drawn.

Assays:
N66A-PD-1/PD-L1 complex = biological target: T1, N66A-PD-1/PD-L1 complex (Homo sapiens, UniProt Q9NZQ7); test: w-AIDA-NMR (weak antagonist-induced dissociation assay); format: binding; settings: equimolar concentrations
T1 construct: hPD-L1 residues, 18–134, C-terminal His-tag; His-tag (C); made in house; host or cells: Escherichia coli BL21 (DE3)
T1 sequence (Q9NZQ7 18-134, stated change not applied, one chain of several): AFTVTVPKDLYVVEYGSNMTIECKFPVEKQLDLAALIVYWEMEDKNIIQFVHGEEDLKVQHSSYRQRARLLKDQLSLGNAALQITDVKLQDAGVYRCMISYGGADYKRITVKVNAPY
Description: Because HTRF is prone to “false positives”, especially aggregators and autofluorophores, we validated the results using the w-AIDA-NMR assay developed by us. […] In the w-AIDA-NMR 2D experiment, ^15N mutated PD-1 gives a characteristic pattern of peaks (Figure 2A). Peak assignment is not necessary as we observe a relative change in the intensity and positions of the reference peaks upon the addition of ligand/inhibitors. Upon the formation of the complex with PD-L1, most of the cross-peaks in the ^1H–^15N HMQC spectrum of PD-1 became broader and less intense with some of the cross-peaks disappearing (Figure 2B). If the inhibitor is capable of disrupting the complex, the resulting spectrum should come back to the reference one of PD-1 alone, as tested inhibitors are PD-L1 binders. […]
Uniform ^15N labeling was obtained by expressing proteins in the M9 minimal medium containing ^15NH4Cl as the sole nitrogen source. […] All spectra were recorded at 300 K using a Bruker Avance III 600 MHz spectrometer equipped with the nitrogen cryoprobe. The ability of tested compounds to dissociate PD-L1/(wild type, wt or N66A)PD-1 was evaluated using the (weak) antagonist-induced dissociation assay (w-AIDA-NMR). […] During the experiment, the ^1H–^15N signals were monitored by SOFAST HMQC.

wtPD-1/PD-L1 complex = biological target: T2, wtPD-1/PD-L1 complex (Homo sapiens, UniProt Q9NZQ7); test: AIDA-NMR with wild-type proteins; format: binding; settings: wild-type PD-1
T2 construct: hPD-L1 residues, 18–134, C-terminal His-tag; His-tag (C); made in house; host or cells: Escherichia coli BL21 (DE3)
T2 sequence (Q9NZQ7 18-134, one chain of several): as the sequence (Q9NZQ7 18-134, stated change not applied, one chain of several) above

[1] = biological target: T3, PD-1/PD-L1 complex (hPD-L1 and hPD-1) (Homo sapiens, UniProt Q9NZQ7); test: Homogeneous time-resolved fluorescence (HTRF) assay, Cis-Bio kit; format: binding
T3 construct: purchased Cis-Bio
T3 sequence (Q9NZQ7 19-238 limits assumed, one chain of several): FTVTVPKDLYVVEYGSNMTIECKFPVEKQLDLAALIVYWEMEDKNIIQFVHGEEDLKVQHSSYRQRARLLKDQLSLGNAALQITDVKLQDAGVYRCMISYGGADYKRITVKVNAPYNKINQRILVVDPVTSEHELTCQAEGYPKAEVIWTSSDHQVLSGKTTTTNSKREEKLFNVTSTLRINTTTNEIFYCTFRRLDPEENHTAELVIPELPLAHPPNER

[2] = biological target: T4, hPD-1/hPD-L1 immune checkpoint (hPD-L1 aAPCs and Jurkat hPD-1 effector cells) (Homo sapiens, UniProt Q9NZQ7); test: hPD-1/hPD-L1 immune checkpoint blockade cell-based assay (Promega Blockade Bioassay)
T4 construct: host or cells: CHO K-1 (hPD-L1 aAPCs) and Jurkat T cells (hPD-1 effector cells)
T4 sequence (Q9NZQ7 19-290): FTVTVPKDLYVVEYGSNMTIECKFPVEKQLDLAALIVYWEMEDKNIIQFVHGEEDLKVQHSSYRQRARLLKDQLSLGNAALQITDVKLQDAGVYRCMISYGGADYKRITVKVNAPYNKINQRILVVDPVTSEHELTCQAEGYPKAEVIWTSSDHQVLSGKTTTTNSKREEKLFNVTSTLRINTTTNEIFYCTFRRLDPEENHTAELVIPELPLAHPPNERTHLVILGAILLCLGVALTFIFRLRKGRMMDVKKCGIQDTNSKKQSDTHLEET

human PD-L1 [3] = biological target: T5, human PD-L1 (Homo sapiens, UniProt Q9NZQ7); test: MicroScale Thermophoresis (MST) binding assay, human PD-L1; settings: hPD-L1
T5 construct: hPD-L1 residues, 18–134, C-terminal His-tag; His-tag (C); made in house; host or cells: Escherichia coli BL21 (DE3)
T5 sequence (Q9NZQ7 18-134): as the sequence (Q9NZQ7 18-134, stated change not applied, one chain of several) above

murine PD-L1 = biological target: T6, murine PD-L1 (Mus musculus, UniProt Q9EP73); test: MicroScale Thermophoresis (MST) binding assay, murine PD-L1; settings: mPD-L1
T6 construct: mPD-L1 residues, 19–134; made in house; host or cells: Escherichia coli BL21 (DE3)
T6 sequence (Q9EP73 19-134): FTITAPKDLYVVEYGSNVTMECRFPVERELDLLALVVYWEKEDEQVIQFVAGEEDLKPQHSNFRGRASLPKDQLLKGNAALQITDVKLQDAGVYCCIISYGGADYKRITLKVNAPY

human PD-1/PD-L1 complex = biological target: T7, human PD-1/PD-L1 complex (Homo sapiens, UniProt Q9NZQ7); test: Competitive ELISA; format: binding; settings: dissociation of human PD-1/PD-L1 complex
T7 construct: Fc; purchased Recepton Sp. z o.o; R1-002-1 (PD-L1); R1-001-1 (PD-1)
T7 sequence (Q9NZQ7 19-238 limits assumed, one chain of several): as the sequence (Q9NZQ7 19-238 limits assumed, one chain of several) above

human PD-L1 [4] = biological target: T5, human PD-L1; test: 1H NMR binding assay; settings: molar ratio 1:1
Experimental: The direct binding of the most prominent compounds 2k and 3d to the human PD-L1 was also confirmed with a ^1H NMR method (Figure S3).
Figure S2 ELISA assay results.
High-binding 96 well plates (Thermo Scientific, cat. 439454) were coated with 1.2 μg/ml (50 μL/well) of Fc-tagged human PD-1 (Recepton Sp. z o.o., cat. R1-001-1) and incubated overnight at 4 ◦C. The plates were warmed to room temperature, washed with wash buffer (1 x PBS, 0.05% Tween 20, pH 7.4) and blocked with 1 % BSA in 1 x PBS, pH 7.4 for 2 h. Standard curve was generated with 0.02 – 50 ug/mL His- and Fc- tagged human PD-L1 (Recepton Sp. z o.o., cat. R1-002-1). […] The bound ligand was detected with the addition of 50 μL/well biotinylated Anty-His antibody (Southern Biotech, cat. 4603-08) followed by 1 h incubation, wash steps and addition of 50 μL/well streptavidin-HRP (Thermo Scientific, cat. 21126). […] The absorbance readings were made on Tecan Spark at the wavelength 450 nm and the reference wavelength 655 nm. IC50 was calculated based on the Δ((A450-A655) from sample – (A450-A655) from background) readings fitted in the plot using a Hill’s […]
For NMR measurements, the buffer was exchanged by gel filtration to PBS pH 7.4. […] All spectra were recorded at 300 K using a Bruker Avance III 600 MHz spectrometer. […]

[5] = test system: Jurkat PD-1 Effector Cells alone or in co-culture with CHO K-1 PD-L1 aAPCs; test: Cytotoxicity / cell viability assay (tetrazolium reagent); format: cell-based; settings: not toxic up to the stated final concentration
primary human T cells = test: Flow cytometry of activation markers on primary T cells (PBMCs on hPD-L1 aAPCs); format: cell-based; settings: 48 h
Experimental: The biological activity of the compound 2k was further verified on the primary T cells. For this, peripheral blood mononuclear cells (PBMCs) isolated from the blood of healthy donors were contacted with hPD-L1 aAPCs to provide TCR-mediated activation of T cells and the engagement of PD-1/PD-L1 immune checkpoint. The cells were then analyzed with flow cytometry following the gating for CD4^+ and CD8^+ T cells. The blockade of the PD-1/PD-L1 immune checkpoint was expected to increase the activation of T cells. In the experiment, atezolizumab and compound 2k were used. […] Because the prolonged activation of T cells leads to the increase of the expression of immune checkpoint molecules,[30] we have monitored the expression of PD-1 protein itself as an indicator of the late T cell activation and exhaustion. […] This confirms the bioactivity of the compound 2k in the context of primary T cells.
Blood samples from healthy donors were purchased from the Regional Center of Blood Donation and Blood Therapy in Krakow. PBMCs were isolated by a density gradient centrifugation using Pancoll human separating solutions (PAN-Biotech) and then resuspended in RPMI 1640 medium (Biowest) containing 10% FBS (Biowest).
PBMCs were added to the preseeded aAPCs at the density of 400 000 cells/well and incubated in the presence of compound 2k, DMSO, and with or without atezolizumab (5 μg/mL) as an anti-PD-L1 monoclonal antibody. After 48 h, cells were detached using TrypLe Select Enzyme (Thermo Fisher Scientific), collected into 5 mL round-bottom tubes, and washed with flow cytometry staining buffer (Thermo Fisher Scientific). For flow cytometry analysis, cells were stained using monoclonal antibodies: anti-CD69-APC, anti-CD4-FITC, anti-CD8-BV510, and anti-PD1-PECy7 (Becton Dickinson, BD). Following 20 min of incubation at room temperature, cells were washed, resuspended in PBS, and analyzed using a FACSCanto II flow cytometer (BD) and FACSDiva software (BD). The data analysis was carried out with FACSuite software (BD).

## BrCc1cccc(-c2ccccc2)c1Br [1a, 2-bromo-3-(bromomethyl)-1,1′-biphenyl]
N66A-PD-1/PD-L1 complex
  dissociation of the mutant N66A-PD-1/PD-L1 complex: capable of dissociating; also recorded: all PD-1 peaks are restored; also recorded: dissociated
wtPD-1/PD-L1 complex
  dissociation of the wtPD-1/PD-L1 complex: not able to dissociate

## OCc1cccc(-c2ccccc2)c1-c1ccccc1 [1b, [1,1′:2′,1″-terphenyl]-3′-ylmethanol]
[1]
  IC50: > 100000 nM

## OCc1cccc(-c2ccccc2)c1F [1c]
N66A-PD-1/PD-L1 complex
  dissociation of the mutant N66A-PD-1/PD-L1 complex: capable of dissociating; also recorded: all PD-1 peaks are restored; also recorded: dissociated
wtPD-1/PD-L1 complex
  dissociation of the wtPD-1/PD-L1 complex: not potent enough to dissociate

## O=C(NCCCN1CCOCC1)c1ccc(OCc2cccc(-c3ccccc3)c2Br)c(Br)c1 [2f, 4-(3-(3-Bromo-4-((2-bromo-[1,1′-biphenyl]-3-yl)methoxy)benzamido)propyl)morpholin-4-ium Hydrochloride]
[1]
  IC50: 13200 ± 150 nM

## CC(=O)NCCNCc1ccc(OCc2cccc(-c3ccccc3)c2Br)c(Br)c1 [2g, N-(2-((3-Bromo-4-((2-bromo-[1,1′-biphenyl]-3-yl)methoxy)benzyl)amino)ethyl)acetamide]
[1]
  IC50: 12.2 ± 0.2 nM
[2]; EC50 estimated on partial data because of it
  toxicity of the compound observed above concentration: above 10 μM
[2]; cell based assay, Table S1
  EC50: 6700 ± 1100 nM
Human PD-L1 [3]
  Kd: 3.17 nM and 3.2 nM
Murine PD-L1
  MST KD: no activity

## O=C(O)[C@@H]1CCCCN1Cc1ccc(OCc2cccc(-c3ccccc3)c2Br)cc1 [2h, (S)-1-(4-((2-Bromo-[1,1′-biphenyl]-3-yl)methoxy)benzyl)piperidine-2-carboxylic Acid]
[1]
  IC50: 522 ± 0.5 nM

## Cc1cc(CN2CCCC[C@H]2C(=O)O)ccc1OCc1cccc(-c2ccccc2)c1Br [2i, (S)-1-(4-((2-Bromo-[1,1′-biphenyl]-3-yl)methoxy)-3-methylbenzyl)piperidine-2-carboxylic Acid]
Murine PD-L1
  MST KD: no activity

## COc1cc(CN2CCCC[C@H]2C(=O)O)ccc1OCc1cccc(-c2ccccc2)c1Br [2j, (S)-1-(4-((2-Bromo-[1,1′-biphenyl]-3-yl)methoxy)-3-methoxybenzyl)piperidine-2-carboxylic Acid]
[1]
  IC50: 204 ± 6.4 nM
[2]; cell based assay, Table S1
  EC50: > 500000 nM

## O=C(O)[C@@H]1CCCCN1Cc1ccc(OCc2cccc(-c3ccccc3)c2Br)c(Br)c1 [2k, (S)-1-(3-Bromo-4-((2-bromo-[1,1′-biphenyl]-3-yl)methoxy)benzyl)piperidine-2-carboxylic Acid]
wtPD-1/PD-L1 complex
  dissociation of the wtPD-1/PD-L1 complex: dissociated
Human PD-1/PD-L1 complex
  IC50: 1.47 ± 0.05 nM
Human PD-L1 [4]
  direct binding to hPD-L1 (1H NMR): caused flattening of 2D spectra characteristic for the dimerization; also recorded: caused a characteristic dimerization of hPD-L1
[2]; at a 50 μM concentration
  level of the Jurkat T cell activation: 2.1 fold
[5]
  toxic concentration in cell viability assay: > 100 µM
Primary human T cells
  expression of PD-1 receptor on the surface of CD4+ and CD8+ T cells: significant increase
  expression of early T-cell activation marker CD69: Neither of the two molecules was able to increase
Human PD-L1 [3]
  Kd: 4.04 nM and 4 nM
Murine PD-L1
  MST KD: no activity

## N#Cc1cc(COc2cc(OCc3cccc(-c4ccccc4)c3Br)c(Cl)cc2CN2C[C@@H](O)C[C@H]2C(=O)O)ccn1 [3d]
Human PD-L1 [4]
  direct binding to hPD-L1 (1H NMR): caused flattening of 2D spectra characteristic for the dimerization; also recorded: caused a characteristic dimerization of hPD-L1
[2]; disallowed data collection for the two highest concentrations
  solubility in DMSO/water conditions: solubility problems

## O=C(O)[C@@H]1C[C@H](O)CN1Cc1ccc(OCc2cccc(-c3ccccc3)c2-c2ccccc2)c(Br)c1 [4f, (2S,4S)-1-(4-([1,1′:2′,1″-Terphenyl]-3′-ylmethoxy)-3-bromobenzyl)-4-hydroxypyrrolidine-2-carboxylic Acid]
[1]
  IC50: 49100 ± 150 nM

## N#Cc1ccc(-c2cccc(COc3ccc(C=O)cc3Br)c2Br)cc1 [4g, 2′-Bromo-3′-((2-bromo-4-formylphenoxy)methyl)-[1,1′-biphenyl]-4-carbonitrile]
[1]
  IC50: 29400 ± 450 nM

## Cc1c(COc2cc(OCc3cccc(C#N)c3)c(CN3C[C@H](O)C[C@@H]3C(=O)O)cc2Cl)cccc1-c1ccc2c(c1)OCCO2 [BMS-1166, reference compound]
Murine PD-L1
  MST KD: no activity

## Durvalumab: a clinically relevant PD-L1-blocking antibody; positive control anti-hPD-L1 monoclonal antibody [reference compound]
[2]; reference antibody, Hill fit
  EC50: 0.2 ± 0.06 nM

## atezolizumab: an anti-PD-L1 therapeutic antibody [reference compound]
Primary human T cells
  expression of PD-1 receptor on the surface of CD4+ and CD8+ T cells: significant increase
  expression of early T-cell activation marker CD69: Neither of the two molecules was able to increase
